Data reported in patent US8552013B2, “Heterocyclic compounds based on N6-substituted adenine, methods of their preparation, their use for preparation of drugs, cosmetic preparations and growth regulators, pharmaceutical preparations, cosmetic preparations and growth regulators containing these compounds” (USTAV Experimentalni Botaniky Akademie Ved Ceske Republiky, priority 2001, dated 2013).

How the values were obtained:
[1] = system: Rosa hybrida 'Pailin' explants; assay: Early shoot senescence of tissue cultured roses; format: in vivo; conditions: for relative number of dead plants in relation to culture time: 10 μM in medium
Description: Rosa hybrida ‘Pailin’ (a cut rose) was cultured in 350 ml vessels with a screw on polycarbonate lid. Each culture vessel contained 100 ml autoclaved medium (120° C., 20 min). The cultures were maintained at 23±2° C. under a 16 h photoperiod at 40 μM m^−2 s^−1 PAR. The basal medium (BMR) contained Murashige and Skoog (1962) macroelements, microelements and vitamins, 36.7 mg/l NaFeEDTA, 50 mg/l NaFeEDDHA, 100 mg/l […] myo-inositol, 30 g/l sucrose, 100 mg/l glycine, 50 mg/l calcium pantothenate, 100 mg/l L-glutamine and 7 g/l agar-agar. This medium was supplemented with 10 μM BA, mT and mMeOBAP. The last 2 cytokinins were filter sterilised and added after autoclaving the medium in the vessels. The control medium didn't contain any cytokinin. After a culture period of 6 weeks, scoring senescence symptoms was started.

[2] = system: human adult skin fibroblasts; assay: Short-term growth of human skin fibroblasts (cell counts, Giemsa); format: cell-based; conditions: for Cell growth versus untreated: 40 μM and 80 μM; for Cell proliferation (summary): all concentrations (40, 80, 200 and 500 μM); for appearance of dermal cells (summary): all doses 40, 80, 200 and 500 μM; for Cellular growth at higher concentrations: para 200 to 500 μM after 11 days, ortho 200 and 400 μM after 7 days, meta 400 μM
Description: (§1) All experiments were performed on early and mid passage cultures (about 20 to 40% lifespan completed) of normal human adult skin fibroblast line; designated ASF-2 & Senetek cell line (about 10-90% lifespan completed); designated as SF20. In order to check the effects of test compounds on senescent cells, late passage cells with more than 95% lifespan completed were used. ASF-2 and SF20 cell lines were established from a mammary skin biopsy obtained from a young, non-smoking and healthy […] at the time of breast reduction operation. Normal culture conditions of medium (DMEM) containing antibiotics, 10% foetal calf serum, and incubation at 37° C. with 95% humidity were used. The effects of the test chemicals were determined in the following conditions:
Short-term growth experiments were performed using 24-well tissue culture plates (growth area 1.9 cm^2). Freshly prepared cell suspensions from mass cultures of ASF-2 cells maintained in our labs were used. About 10,000 cells were seeded into 6 sets of 24-well plates. The cells were allowed to attach and stabilize for 24 hr in normal culture medium to achieve various final concentrations (range 40 to 500 μM). Culture medium was changed with the addition of test chemicals twice a week. The numbers of cells were counted after different days of treatment in 2 wells from each concentration of the test chemical, by following the normal method of cell trypsinization and counting using a Coultercounter. The third well in each category was fixed by cold methanol and stained with Giemsa stain for permanent record and for photography. The experiment was carried on for until the cultures became fully confluent and no further growth was possible.

human skin fibroblasts [3] = assay: Series of experiments on short-term effects on human skin fibroblasts, conclusion; format: cell-based; conditions: para at a dose of 40 μM
Description: as §1
The experiments were performed to determine the effects of short-term treatment of ortho-topolin, meta-topolin, and para-topolin on cell attachment, survival, growth, apoptosis, actin cytoskeletal pattern, lysosomal activity, proteasomal activity and morphology of human skin fibroblasts in culture.

[4] = system: senescent human skin fibroblasts; assay: Actin staining of senescent cells (FITC-Phalloidin); format: cell-based; conditions: after 3 days; meta 40 μM
Source text: Actin staining: The pattern of cytoskeletal actin staining was studied by staining the cells with florescent ligand FITC-labelled Phalloidin, using a fluorescence microscope

[5] = system: senescent human skin fibroblasts; assay: Numbers of surviving senescent cells (Coulter counter); format: cell-based; conditions: 7 to 14 days of treatment
Description: Equal numbers of senescent cells were seeded in separate flasks and were treated with different concentrations of para-topolin. Cell numbers were determined by using a Coulter counter after trpsinization and resuspension of cells after 7 and 14 days of treatment.
Equal numbers of senescent cells were seeded in separate flasks and were treated with different concentrations of ortho-topolin. Cell numbers were determined by using a Coulter counter after trypsinisation and resuspension of cells, after 7 and 14 days of treatment.

human skin fibroblasts [6] = assay: Apoptosis assay in treated skin fibroblasts; format: cell-based; conditions: 3 days of treatment; ortho 200 μM
human skin fibroblasts [7] = assay: Cell attachment of human skin fibroblasts; format: cell-based; conditions: for attachment / Percent of cells attached, effect in words: ortho 40 to 400 μM, meta 40 to 200 μM; for Percent of cells attached, effect in words: para 40 μM to 1 mM; for Overall cell attachment improved (summary): para at 40, 80, 100, 160, 250 and 500 μM
Description: as §1, with “conditions: […]” for “conditions:”

[8] = system: senescent human skin fibroblasts; assay: Morphology of senescent cells; format: cell-based; conditions: for appearance of senescent cells on longer treatment: 14 days, ortho and meta 80 μM and above; for appearance of senescent cells: after 7 days of treatment (para: 7 days and 14 days; meta: low concentrations)
Description: as §1
Senescent human skin fibroblasts were treated with various doses of para-topolin to see if this treatment could reverse age-related alterations in their morphology. […] The cells progressively became heterogeneous with large and flattened appearance.

[9] = system: lysosomes of fibroblast cells; assay: Lysosomal activity, neutral red uptake; format: cell-based, human; conditions: pre-treated fibroblasts
Description: Neutral Red is preferentially taken up into the lysosomes of the cell. Fibroblast cells are maintained in culture and exposed to test compounds over a range of concentrations. The cultures are visually examined after 72 hours, and the number of viable cells and/or the total cell protein content determined, after 72 hours exposure, by the Neutral Red Uptake method. Advantage of Neutral Red assay is that it detects only viable cells. Any chemical having a localized effect upon the lysosomes will, therefore, result in an artificially low (or possibly high) reflection of cell viability and cell number. This factor does, however, make the system useful to detect those compounds which selectively affect the lysosomes, especially when it is used in conjunction with other tests capable of determining cell number.
The NR assay has been applied to evaluation and ranking the cytotoxicity of a spectrum of compounds. Individual wells of a 96-well tissue culture microtiter plate were inoculated with 0.2 ml of the appropriate media containing cells (usually 3×10^3 cells). After 1 to 2 days of incubation, the media were removed and replaced with unamended (control) medium or with medium amended with varied concentrations of the compound to be tested. After 3 days of exposure to the compound, media were removed and replaced with media containing 0.001% NR. The assay plate was then returned to the incubator for another 3 h to allow for uptake of the supravital dye into the lysosomes of viable cells. Thereafter, the media were removed and the cells were rapidly washed with 0.5% formaldehyde-1% CaCl2 followed by 0.2 ml of a solution of 1% acetic acid-50% ethanol to extract the dye from the cells. After 10 min at room temperature and a brief but rapid agitation on a microtiter plate shaker, the plates were transferred to a microplate spectrophotometer equipped with a 540-nm filter to measure the absorbance of the extracted dye.
The toxicities of the various compounds were compared with those of the control cultures by computing the data obtained.

human skin fibroblasts [10] = assay: beta-galactosidase staining of treated skin fibroblasts; format: cell-based; conditions: short-term growth treatment

Row | Compound | relative number of dead plants in relation to culture time [1] | plants alive ([1]; 10 μM, after 121 days) | Cell growth versus untreated [2] | rate of growth ([2]; 200 μM) | Cell proliferation (summary) [2] | appearance of dermal cells (summary) [2] | Cellular growth at higher concentrations [2] | conclusion on short-term effects on human skin fibroblasts (human skin fibroblasts [3]) | actin staining pattern in senescent cells [4] | numbers of surviving senescent cells [5] | apoptosis assay (human skin fibroblasts [6]) | reduction in cell attachment (human skin fibroblasts [7]; 400 μM, 6 hours) [%] | attachment (human skin fibroblasts [7]; 6 hours) | Percent of cells attached, effect in words (human skin fibroblasts [7]; 6 hours) | Overall cell attachment improved (summary) (human skin fibroblasts [7]) | effects on morphology of senescent cells ([8]; 200 μM and above, within 7 days) | appearance of senescent cells on longer treatment [8] | appearance of senescent cells [8] | Cleaning up of cytoplasmic debris (macro-molecular turn-over rate), summary [9] | number of prematurely senescent cells, beta-galactosidase staining (human skin fibroblasts [10])
1 | COc1cccc(CNc2ncnc3nc[nH]c23)c1 [6-(3-methoxybenzylamino)purine] | the situation improved | almost all plants were still alive | – | – | – | – | – | – | – | – | – | – | – | – | – | – | – | – | – | –
2 | Oc1cccc(CNc2ncnc3nc[nH]c23)c1 [meta-topolin, 6-(3-hydroxybenzylamino)purine] | the situation improved | – | almost similar | slowed down | declined to a significant extent | morbid in appearance | almost no growth | little or no beneficial effects | depolymerised actin filaments to some extent | reduces the number of surviving senescent cells in a dose dependent manner | cell death at 40 μM and above | 20 | about 80% | not affected to any significant extent | No improvements | some negative effects | unhealthy and sick | no significant differences | No such effective removal was observed | –
3 | Oc1ccccc1CNc1ncnc2nc[nH]c12 [ortho-topolin, 6-(2-hydroxybenzylamino)purine] | – | – | almost similar | – | declined to a significant extent | morbid in appearance | almost a total inhibition | little or no beneficial effects | no obvious differences | reduces the number of surviving senescent cells significantly | some induction of apoptosis | – | 80 to 90% | not affected to any significant extent | No improvements | – | unhealthy and sick | no significant differences | No such effective removal was observed | did not show any increase
